# Assay results: ChEMBL document CHEMBL4007434, “Indazole-Based Covalent Inhibitors To Target Drug-Resistant Epidermal Growth Factor Receptor” (J Med Chem, 2017)
# System: not listed separately
# Experiment: Inhibition of KRAS mutant in human A431 cells assessed as reduction in cell viability after 96 hrs by CellTiterGlo assay
# Format: cell-based
# Conditions: A-431, 96 h
row,Structure (SMILES),EC50 [nM]
1,C=CC(=O)Nc1cc(Nc2n[nH]c3cc(-c4cncc5ccccc45)ccc23)c(OC)cc1N(C)CCN(C)C,659

# Molecular target: Epidermal growth factor receptor (Homo sapiens, UniProt P00533, L858R/T790M)
# Sequence (P00533 25-1210 T790M/L858R limits assumed): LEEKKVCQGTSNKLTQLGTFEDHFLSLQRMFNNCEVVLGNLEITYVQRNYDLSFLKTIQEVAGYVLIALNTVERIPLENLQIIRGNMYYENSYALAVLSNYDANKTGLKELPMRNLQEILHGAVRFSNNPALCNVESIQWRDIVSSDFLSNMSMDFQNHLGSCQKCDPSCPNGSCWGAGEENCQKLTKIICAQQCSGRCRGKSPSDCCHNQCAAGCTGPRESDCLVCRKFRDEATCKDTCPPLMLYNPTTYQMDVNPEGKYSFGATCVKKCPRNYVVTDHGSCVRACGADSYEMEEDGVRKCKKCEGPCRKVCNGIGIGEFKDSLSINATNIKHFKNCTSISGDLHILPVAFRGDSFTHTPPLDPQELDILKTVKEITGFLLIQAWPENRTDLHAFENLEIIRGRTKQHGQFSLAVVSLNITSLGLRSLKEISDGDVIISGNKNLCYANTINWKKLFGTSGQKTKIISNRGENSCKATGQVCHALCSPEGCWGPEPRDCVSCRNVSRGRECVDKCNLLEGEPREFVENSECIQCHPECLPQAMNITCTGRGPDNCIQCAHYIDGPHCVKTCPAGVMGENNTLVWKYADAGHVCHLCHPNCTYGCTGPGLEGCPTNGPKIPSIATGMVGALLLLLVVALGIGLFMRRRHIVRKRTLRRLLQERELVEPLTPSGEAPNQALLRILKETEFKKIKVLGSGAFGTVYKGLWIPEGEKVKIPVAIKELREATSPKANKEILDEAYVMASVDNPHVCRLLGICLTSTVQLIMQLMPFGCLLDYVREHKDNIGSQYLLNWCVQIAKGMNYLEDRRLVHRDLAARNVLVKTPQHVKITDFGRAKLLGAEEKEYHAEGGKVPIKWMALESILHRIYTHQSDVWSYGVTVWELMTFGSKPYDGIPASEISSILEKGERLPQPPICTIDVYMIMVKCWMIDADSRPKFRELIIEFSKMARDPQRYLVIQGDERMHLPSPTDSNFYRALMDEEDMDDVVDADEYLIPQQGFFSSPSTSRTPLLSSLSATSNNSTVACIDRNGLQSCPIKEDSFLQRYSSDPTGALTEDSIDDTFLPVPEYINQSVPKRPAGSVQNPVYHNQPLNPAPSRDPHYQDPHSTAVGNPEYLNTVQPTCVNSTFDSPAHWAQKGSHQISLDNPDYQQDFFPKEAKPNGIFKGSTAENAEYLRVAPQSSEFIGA
# Conditions: not given
row,Structure (SMILES),IC50 [nM]
1,CCC(=O)Nc1cc(Nc2n[nH]c3ccccc23)c(OC)cc1N(C)CCN(C)C,> 10000
2,C=CC(=O)Nc1cc(Nc2n[nH]c3cc(-c4ccc(N(C)C)cc4)ccc23)c(OC)cc1N(C)CCN(C)C,72
3,C=CC(=O)Nc1cc(Nc2n[nH]c3cc(-c4cccc(F)c4)ccc23)c(OC)cc1N(C)CCN(C)C,5
4,C=CC(=O)Nc1cc(Nc2n[nH]c3cc(-c4cncc5ccccc45)ccc23)c(OC)cc1N(C)CCN(C)C,6

# Molecular target: T1, Epidermal growth factor receptor (Homo sapiens, UniProt P00533)
# T1 sequence (P00533 whole entry): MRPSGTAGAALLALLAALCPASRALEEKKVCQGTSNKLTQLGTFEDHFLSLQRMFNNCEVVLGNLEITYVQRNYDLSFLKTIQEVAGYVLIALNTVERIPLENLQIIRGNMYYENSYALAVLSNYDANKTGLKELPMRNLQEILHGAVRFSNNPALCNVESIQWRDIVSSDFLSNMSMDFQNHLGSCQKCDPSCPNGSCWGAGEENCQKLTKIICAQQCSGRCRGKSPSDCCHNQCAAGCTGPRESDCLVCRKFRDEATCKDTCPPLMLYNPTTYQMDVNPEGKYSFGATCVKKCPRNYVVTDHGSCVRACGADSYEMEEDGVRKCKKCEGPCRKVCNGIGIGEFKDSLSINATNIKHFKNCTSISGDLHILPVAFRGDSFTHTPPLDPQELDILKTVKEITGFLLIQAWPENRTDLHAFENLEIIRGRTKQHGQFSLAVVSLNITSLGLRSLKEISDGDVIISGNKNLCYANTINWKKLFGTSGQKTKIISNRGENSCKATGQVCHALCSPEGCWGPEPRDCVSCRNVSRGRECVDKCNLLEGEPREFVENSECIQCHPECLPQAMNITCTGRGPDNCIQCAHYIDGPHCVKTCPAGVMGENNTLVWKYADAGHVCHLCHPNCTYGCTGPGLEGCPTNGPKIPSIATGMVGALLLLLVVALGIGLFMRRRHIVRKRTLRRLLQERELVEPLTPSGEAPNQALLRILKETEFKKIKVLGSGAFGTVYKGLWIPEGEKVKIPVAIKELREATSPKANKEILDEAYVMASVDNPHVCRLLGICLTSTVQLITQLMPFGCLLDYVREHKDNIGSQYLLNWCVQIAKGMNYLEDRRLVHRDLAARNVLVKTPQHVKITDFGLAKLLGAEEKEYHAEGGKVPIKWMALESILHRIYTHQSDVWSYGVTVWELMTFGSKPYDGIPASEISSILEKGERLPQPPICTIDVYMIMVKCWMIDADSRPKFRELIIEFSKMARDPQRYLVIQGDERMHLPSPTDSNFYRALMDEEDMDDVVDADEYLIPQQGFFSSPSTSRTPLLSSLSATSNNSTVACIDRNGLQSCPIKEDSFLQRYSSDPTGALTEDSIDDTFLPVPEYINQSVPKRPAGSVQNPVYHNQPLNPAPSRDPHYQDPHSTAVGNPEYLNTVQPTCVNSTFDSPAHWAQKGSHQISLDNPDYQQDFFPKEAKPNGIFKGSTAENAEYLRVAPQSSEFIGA
# Experiment: Inhibition of wild-type EGFR in human A431 cells assessed as reduction in cell viability after 96 hrs by CellTiterGlo assay
# Format: ADME, cell-based
# Conditions: not given
row,Structure (SMILES),EC50 [nM]
1,CCC(=O)Nc1cc(Nc2n[nH]c3ccccc23)c(OC)cc1N(C)CCN(C)C,> 30000
2,C=CC(=O)Nc1cc(Nc2n[nH]c3cc(-c4ccc(N(C)C)cc4)ccc23)c(OC)cc1N(C)CCN(C)C,1410
3,C=CC(=O)Nc1cc(Nc2n[nH]c3cc(-c4cccc(F)c4)ccc23)c(OC)cc1N(C)CCN(C)C,2280
4,C=CC(=O)Nc1cc(Nc2n[nH]c3cc(-c4cncc5ccccc45)ccc23)c(OC)cc1N(C)CCN(C)C,2820

# Molecular target: T1, Epidermal growth factor receptor
# Format: ADME
# Conditions: not given
row,Structure (SMILES),IC50 [nM]
1,CCC(=O)Nc1cc(Nc2n[nH]c3ccccc23)c(OC)cc1N(C)CCN(C)C,> 10000
2,C=CC(=O)Nc1cc(Nc2n[nH]c3cc(-c4ccc(N(C)C)cc4)ccc23)c(OC)cc1N(C)CCN(C)C,387
3,C=CC(=O)Nc1cc(Nc2n[nH]c3cc(-c4cccc(F)c4)ccc23)c(OC)cc1N(C)CCN(C)C,5
4,C=CC(=O)Nc1cc(Nc2n[nH]c3cc(-c4cncc5ccccc45)ccc23)c(OC)cc1N(C)CCN(C)C,2.8

# Molecular target: Epidermal growth factor receptor (Homo sapiens, UniProt P00533, L858R)
# Sequence (P00533 25-1210 L858R limits assumed): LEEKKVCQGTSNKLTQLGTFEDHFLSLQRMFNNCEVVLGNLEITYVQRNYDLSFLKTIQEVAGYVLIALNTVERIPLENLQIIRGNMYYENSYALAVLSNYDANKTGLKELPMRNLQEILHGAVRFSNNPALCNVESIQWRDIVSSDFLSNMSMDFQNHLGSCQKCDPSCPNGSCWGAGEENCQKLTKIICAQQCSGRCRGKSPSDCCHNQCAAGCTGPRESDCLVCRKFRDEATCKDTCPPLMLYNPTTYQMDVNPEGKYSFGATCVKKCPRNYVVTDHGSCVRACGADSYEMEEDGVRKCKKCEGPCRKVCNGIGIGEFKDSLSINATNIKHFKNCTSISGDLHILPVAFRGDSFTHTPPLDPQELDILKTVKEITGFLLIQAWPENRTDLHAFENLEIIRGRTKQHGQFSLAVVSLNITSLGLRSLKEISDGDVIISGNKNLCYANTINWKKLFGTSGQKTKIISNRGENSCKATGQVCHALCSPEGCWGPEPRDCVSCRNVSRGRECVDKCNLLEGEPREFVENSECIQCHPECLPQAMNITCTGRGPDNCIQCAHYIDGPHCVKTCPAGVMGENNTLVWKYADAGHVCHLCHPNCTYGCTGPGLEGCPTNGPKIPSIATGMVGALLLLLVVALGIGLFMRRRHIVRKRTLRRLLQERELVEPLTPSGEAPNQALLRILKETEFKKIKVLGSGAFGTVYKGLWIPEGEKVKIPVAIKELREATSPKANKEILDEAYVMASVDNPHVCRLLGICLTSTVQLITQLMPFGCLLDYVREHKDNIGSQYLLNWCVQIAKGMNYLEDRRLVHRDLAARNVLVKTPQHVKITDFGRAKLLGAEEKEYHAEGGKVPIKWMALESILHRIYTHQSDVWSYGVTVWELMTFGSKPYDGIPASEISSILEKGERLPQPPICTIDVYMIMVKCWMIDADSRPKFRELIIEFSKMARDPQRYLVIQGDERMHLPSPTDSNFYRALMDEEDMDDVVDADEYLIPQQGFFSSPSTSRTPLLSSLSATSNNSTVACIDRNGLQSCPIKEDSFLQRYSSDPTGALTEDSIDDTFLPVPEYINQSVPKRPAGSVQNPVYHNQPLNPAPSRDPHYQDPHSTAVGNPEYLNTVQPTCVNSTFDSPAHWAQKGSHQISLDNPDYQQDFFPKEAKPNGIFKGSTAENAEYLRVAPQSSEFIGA
# Conditions: not given
row,Structure (SMILES),IC50 [nM]
1,CCC(=O)Nc1cc(Nc2n[nH]c3ccccc23)c(OC)cc1N(C)CCN(C)C,> 10000
2,C=CC(=O)Nc1cc(Nc2n[nH]c3cc(-c4ccc(N(C)C)cc4)ccc23)c(OC)cc1N(C)CCN(C)C,80
3,C=CC(=O)Nc1cc(Nc2n[nH]c3cc(-c4cccc(F)c4)ccc23)c(OC)cc1N(C)CCN(C)C,1.6
4,C=CC(=O)Nc1cc(Nc2n[nH]c3cc(-c4cncc5ccccc45)ccc23)c(OC)cc1N(C)CCN(C)C,1.1
